# Activity calls are given as the source filed them.
# Columns and labels:
# INS1 = test: beta cell apoptosis inhibitors, cytokine rescue, dose response, luminescence, retest (AID 449756); format: functional, cell-based; conditions: Rattus norvegicus;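 also: cell death triggered by IL-1 beta plus TNF-alpha plus IFN-gamma mixture; protective hits raise ATP signal compared with cytokine alone wells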
# Cytochrome P450 3A4 = Cytochrome P450 3A4 (Homo sapiens, UniProt P08684);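 also: CYP3A4 tested as one member of a cytochrome P450 panel screen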
# Chain of Cytochrome P450 3A4 (P08684 whole entry): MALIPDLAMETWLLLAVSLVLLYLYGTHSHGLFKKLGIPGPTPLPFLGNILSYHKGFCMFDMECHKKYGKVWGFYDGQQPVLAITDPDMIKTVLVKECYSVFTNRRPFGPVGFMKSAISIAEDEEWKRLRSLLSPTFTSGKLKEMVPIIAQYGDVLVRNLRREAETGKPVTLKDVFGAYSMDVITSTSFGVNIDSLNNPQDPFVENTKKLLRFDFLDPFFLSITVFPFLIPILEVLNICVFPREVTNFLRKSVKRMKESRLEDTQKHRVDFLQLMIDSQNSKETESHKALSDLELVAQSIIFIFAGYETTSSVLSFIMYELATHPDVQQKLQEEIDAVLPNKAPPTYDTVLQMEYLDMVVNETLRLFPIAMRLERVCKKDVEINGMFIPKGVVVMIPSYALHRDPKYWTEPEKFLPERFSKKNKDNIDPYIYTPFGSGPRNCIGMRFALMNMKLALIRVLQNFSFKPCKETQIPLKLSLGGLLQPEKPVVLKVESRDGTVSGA
# Cytochrome P450 2C9 = Cytochrome P450 2C9 (Homo sapiens, UniProt P11712)
# Chain of Cytochrome P450 2C9 (P11712 whole entry): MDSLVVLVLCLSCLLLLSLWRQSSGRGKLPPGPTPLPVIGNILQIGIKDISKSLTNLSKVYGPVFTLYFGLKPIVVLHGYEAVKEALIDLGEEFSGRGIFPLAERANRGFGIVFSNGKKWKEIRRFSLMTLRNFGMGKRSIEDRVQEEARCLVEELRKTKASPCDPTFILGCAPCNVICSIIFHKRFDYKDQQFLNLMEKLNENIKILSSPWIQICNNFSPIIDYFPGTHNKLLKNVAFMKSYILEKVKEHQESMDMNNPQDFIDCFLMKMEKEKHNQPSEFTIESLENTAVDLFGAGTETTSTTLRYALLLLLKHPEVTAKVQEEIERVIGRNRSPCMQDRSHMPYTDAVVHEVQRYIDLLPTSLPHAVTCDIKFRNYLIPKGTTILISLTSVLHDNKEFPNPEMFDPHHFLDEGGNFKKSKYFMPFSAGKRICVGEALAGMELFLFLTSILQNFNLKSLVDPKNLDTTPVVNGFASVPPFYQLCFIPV
# Cytochrome P450 2C19 = Cytochrome P450 2C19 (Homo sapiens, UniProt P33261); test: Cytochrome panel assay with activity outcomes. Panel member name: p450-cyp2c19 Compounds with AC50 equal or less than 10 uM are considered active; format: functional; conditions: read-out: AC50
# Chain of Cytochrome P450 2C19 (P33261 whole entry): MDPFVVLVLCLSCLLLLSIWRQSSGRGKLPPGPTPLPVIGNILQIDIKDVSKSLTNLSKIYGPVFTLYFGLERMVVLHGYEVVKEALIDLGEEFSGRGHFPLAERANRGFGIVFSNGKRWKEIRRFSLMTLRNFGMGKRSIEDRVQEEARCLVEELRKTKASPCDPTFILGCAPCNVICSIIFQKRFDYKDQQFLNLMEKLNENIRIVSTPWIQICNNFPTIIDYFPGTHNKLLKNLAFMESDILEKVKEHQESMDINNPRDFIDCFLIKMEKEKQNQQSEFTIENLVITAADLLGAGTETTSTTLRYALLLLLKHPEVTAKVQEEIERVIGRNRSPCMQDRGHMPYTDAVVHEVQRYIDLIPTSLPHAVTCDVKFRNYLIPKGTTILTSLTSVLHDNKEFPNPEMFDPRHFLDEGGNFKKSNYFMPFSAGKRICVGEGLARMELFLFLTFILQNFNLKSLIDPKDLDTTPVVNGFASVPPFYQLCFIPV
# [1] = system: Streptococcus sp. 'group A'; test: growth inhibition of control SK(-) GAS strain, dose response, counter-screen for streptokinase expression inhibitor project, luminescence, kanamycin, BacTiterGlo, confirmation (AID 1900); format: functional, organism-based
# Streptokinase A = target: T1, Streptokinase A (Streptococcus pyogenes serotype M1, UniProt P10520); test: S. pyogenes streptokinase expression inhibitors, potency, dose response, plasminogen activation absorbance, OD405 (AID 1914); format: functional, Streptococcus pyogenes M1 GAS;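 also: secreted streptokinase activity via plasminogen activation per viability signal from cell pellet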
# T1 sequence (P10520 whole entry): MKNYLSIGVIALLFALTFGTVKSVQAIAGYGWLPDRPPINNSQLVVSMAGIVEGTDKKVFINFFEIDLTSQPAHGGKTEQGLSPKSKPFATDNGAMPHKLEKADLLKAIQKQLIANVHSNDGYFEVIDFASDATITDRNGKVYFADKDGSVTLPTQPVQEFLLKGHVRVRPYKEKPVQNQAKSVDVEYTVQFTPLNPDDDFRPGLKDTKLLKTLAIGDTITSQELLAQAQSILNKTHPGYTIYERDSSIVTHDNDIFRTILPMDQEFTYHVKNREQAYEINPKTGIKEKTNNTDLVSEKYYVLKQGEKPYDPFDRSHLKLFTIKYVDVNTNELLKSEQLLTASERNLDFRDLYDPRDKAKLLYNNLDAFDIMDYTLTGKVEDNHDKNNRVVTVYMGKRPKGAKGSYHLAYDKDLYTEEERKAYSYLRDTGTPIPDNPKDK
# Streptococcus = test: Group A Streptococcus viability loss, dose response, counter-screen for streptokinase expression inhibitor project, luminescence, BacTiterGlo (AID 1915); format: functional, organism-based;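 also: potency for reduction of bacterial viability or growth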
# [2] = target: T2, Corticotropin-releasing factor receptor 2/Corticotropin-releasing factor-binding protein (Homo sapiens, UniProt P24387+Q13324); test: activators of CRF receptor 2 with binding protein – uHTS hits, confirmation (AID 602473); format: functional; conditions: read-out: EC50_Mean
# T2 sequence (Q13324 whole entry): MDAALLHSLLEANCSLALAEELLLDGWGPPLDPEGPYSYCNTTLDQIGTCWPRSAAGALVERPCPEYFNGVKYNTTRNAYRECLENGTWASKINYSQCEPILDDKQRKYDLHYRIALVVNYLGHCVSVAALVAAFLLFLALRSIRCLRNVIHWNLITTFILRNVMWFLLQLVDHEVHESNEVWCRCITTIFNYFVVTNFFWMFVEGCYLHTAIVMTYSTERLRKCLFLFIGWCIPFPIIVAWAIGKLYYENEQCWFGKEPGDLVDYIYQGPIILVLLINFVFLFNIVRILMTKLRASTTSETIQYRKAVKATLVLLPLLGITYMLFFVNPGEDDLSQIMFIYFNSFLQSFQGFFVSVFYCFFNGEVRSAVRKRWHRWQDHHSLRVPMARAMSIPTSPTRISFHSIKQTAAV
# T2 sequence (P24387 whole entry): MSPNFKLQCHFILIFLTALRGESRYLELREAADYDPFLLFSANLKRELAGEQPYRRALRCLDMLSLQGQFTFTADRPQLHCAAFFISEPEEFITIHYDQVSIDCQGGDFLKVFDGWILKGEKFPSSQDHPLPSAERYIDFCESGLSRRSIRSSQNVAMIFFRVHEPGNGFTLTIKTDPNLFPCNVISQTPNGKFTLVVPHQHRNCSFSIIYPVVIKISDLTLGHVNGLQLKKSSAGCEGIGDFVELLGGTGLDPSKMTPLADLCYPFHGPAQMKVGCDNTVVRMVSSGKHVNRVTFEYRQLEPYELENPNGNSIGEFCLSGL
# [3] = inhibitors of firefly luciferase expression or activity, dose response, H4 neuroglioma cells, luminescence (AID 1990); format: functional, cell-based
# [4] = Luminescence Cell-Based Dose Response HTS to Identify Inhibitors of 5'UTR Stem-Loop Driven Prion Protein mRNA Translation in H4 Neuroglioblastoma Cells. [Related pubchem assays: 1827 (Project Summary), 1813 (Primary HTS)]; format: functional
# [5] = inhibitors of SNCA 5'UTR-driven reporter translation, confirmation, H4 neuroglioma cells, luminescence (AID 1988); format: functional, cell-based
# H9c2 = test: cells; format: functional, cell-based; conditions: Rattus norvegicus, H9c2, Myocardium;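 also: confirmatory concentration-response retest of ultra-high-throughput screening hits for modulation of myocardial damage; cell death induced by hydrogen peroxide oxidative stress; compound pretreatment for 60 min then peroxide exposure for 2 h; potency is for protecting the cells against peroxide damage rather than for killing them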
# [6] = NIH-3T3 fibroblast cytotoxicity, dose response, cytotoxicity control, cell-based, fluorescence, Alamar Blue, secondary assay (AID 2327); format: functional;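 also: NIH-3T3 mouse fibroblasts cultured with fluconazole at 8 µg/mL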
# [7] = C. albicans growth with fluconazole, confirmation, fluorescence, retest (AID 2467); format: functional, cell-based
# [8] = P. falciparum Dd2 growth inhibitors, dose response, SYBR Green, cherry-picked samples (AID 1159567); format: functional, cell-based
compound,measurement,setting,value
Cc1ccc(NC(=O)c2cc(S(=O)(=O)NCCC3=CCCCC3)ccc2F)cc1,AC50,INS1,2.96 µM (active)
O=C(NCc1cccnc1)C(=O)Nc1nc(C23CC4CC(CC(C4)C2)C3)cs1,AC50,INS1,35.3 µM (active)
CCCCSc1nc(C)cc(C)c1S(=O)(=O)c1ccccc1C,AC50,Cytochrome P450 3A4,28.2 µM (inconclusive)
same,AC50,Cytochrome P450 2C9,10 µM (inconclusive)
CCCn1c(=O)c2[nH]c(-c3ccccc3)nc2n(CCC)c1=O,AC50,Cytochrome P450 2C19,10 µM (inconclusive)
same,AC50,Cytochrome P450 3A4,2.51 µM (inconclusive)
same,AC50,Cytochrome P450 2C9,1.58 µM (inconclusive)
CC(C)n1c(=O)c2c(=O)cc(O)oc2c2ccccc21,EC50,[1],27.8 µM (active)
same,EC50,Streptokinase A,> 150 µM (not active)
same,EC50,Streptococcus,> 150 µM (not active)
same,AC50,Cytochrome P450 2C19,10 µM (inconclusive)
same,AC50,Cytochrome P450 3A4,2.51 µM (inconclusive)
CCOC(=O)N1CCN(C(=O)c2cnc3ccc(S(=O)(=O)N(C)c4cccc(C)c4)cc3c2O)CC1,EC50,[2],3.84 µM (active)
COc1ccc(CC(=O)N/N=C(\C)c2ccccn2)cc1,EC50,[3],10.9 µM (active)
same,EC50,[4],9.61 µM (active)
same,EC50,[5],9.41 µM (active)
same,IC50,H9c2,> 79 µM (inactive)
CCN(CC)c1ccc(/C=N/NC(=S)NCc2ccccc2)c(O)c1,EC50,[1],49.2 µM (active)
same,EC50,Streptokinase A,> 150 µM (not active)
same,EC50,Streptococcus,> 150 µM (not active)
same,AC50,INS1,0.712 µM (active)
CCOC(=O)c1s/c(=N\C(=O)c2ccco2)n(C)c1C,EC50,[6],> 150 µM (inactive)
same,EC50,[7],9.57 µM (active)
Brc1ccc(/C=C/C=N/Nc2nc3ccccc3s2)cc1,EC50,[6],89.4 µM (inconclusive)
same,AC50,Cytochrome P450 2C9,7.08 µM (inconclusive)
CC(=O)NC/C(C)=N\Nc1ccc([N+](=O)[O-])cc1,EC50,[6],33.9 µM (active)
CCS(=O)(=O)N1CCCCN2[C@H](CO)[C@H](c3ccc(-c4cccc(C#N)c4)cc3)[C@H]2C1,AC50,[8],7.45 µM (active)
Cc1noc(C)c1S(=O)(=O)N(C)C[C@H]1OCc2ccccc2-c2c(n(C)c3ccccc23)C(=O)N([C@@H](C)CO)C[C@H]1C,AC50,[8],4.65 µM (active)
C[C@H](CO)N1C[C@H](C)[C@H](CN(C)C(=O)NC2CCCCC2)OCc2ccccc2-c2c(n(C)c3ccccc23)C1=O,AC50,[8],5.57 µM (active)
COc1cccc(CNC(=O)c2cc3c(c(-c4cccc(-c5ccncc5)c4)n2)[C@H](CCO)N([S@@+]([O-])C(C)(C)C)C3)c1,AC50,[8],4.29 µM (active)
Oc1c(Cl)c(Cl)c(Cl)c(Cl)c1Cl [PENTACHLOROPHENOL],EC50,[6],75.3 µM (inconclusive)
same,EC50,[7],0.657 µM (active)
